Results on 12 molecules are retold here after PMC5736695, “Lectin activity of the pneumococcal pilin proteins” (Scientific Reports, 2017).

What all share (type): binding
Experiment [1] addresses RrgA SPEC6B (Streptococcus pneumoniae, UniProt A7KT31). Nature of the experiment: SPR (Biacore T100). The conditions noted are these: read-out: RrgA SPEC6B; free oligosaccharide; protein immobilised on CM5 chip; glycans 160 nM to 100 µM. From the text:
SPR (Biacore T100) on RrgA SPEC6B
For orientation: Surface plasmon resonance follows binding to a sensor surface in real time, without labels.

The target in experiment [2] is T1, RrgA TIGR4 (RrgA T4) (Streptococcus pneumoniae, UniProt A0A0H2UNT6).
T1 construct: gene SP_0462
Nature of the experiment: SPR (Biacore T100). From the text: SPR (Biacore T100) on RrgA TIGR4 (RrgA T4)

Experiment [3] has as its target T2, RrgC T4 (Streptococcus pneumoniae, UniProt A0A0H2UNM0).
T2 construct: gene SP_0464
Nature of the experiment: glycan array, fluorescence. The conditions noted are these: glycan printed on slide via spacer; PBS, 1 mM MgCl2, 1 mM CaCl2; protein pre-complexed with anti-His and labelled secondary antibodies. An excerpt:
glycan array, fluorescence on RrgC T4

Experiment [4] has as its target T3, RrgB T4 (Streptococcus pneumoniae, UniProt A0A0H2UNM7).
T3 construct: gene SP_0463
Nature of the experiment: glycan array, fluorescence. The conditions noted are these: glycan printed on slide via spacer; PBS, 1 mM MgCl2, 1 mM CaCl2; protein pre-complexed with anti-His and labelled secondary antibodies. From the text:
glycan array, fluorescence on RrgB T4

[5] abbreviates: read-out: RrgA TIGR4, free oligosaccharide, protein immobilised on CM5 chip, glycans 160 nM to 100 µM.

Like-named read-outs stand apart in the source and are kept apart here.

Sequence of RrgA SPEC6B (A7KT31 entry or part of it): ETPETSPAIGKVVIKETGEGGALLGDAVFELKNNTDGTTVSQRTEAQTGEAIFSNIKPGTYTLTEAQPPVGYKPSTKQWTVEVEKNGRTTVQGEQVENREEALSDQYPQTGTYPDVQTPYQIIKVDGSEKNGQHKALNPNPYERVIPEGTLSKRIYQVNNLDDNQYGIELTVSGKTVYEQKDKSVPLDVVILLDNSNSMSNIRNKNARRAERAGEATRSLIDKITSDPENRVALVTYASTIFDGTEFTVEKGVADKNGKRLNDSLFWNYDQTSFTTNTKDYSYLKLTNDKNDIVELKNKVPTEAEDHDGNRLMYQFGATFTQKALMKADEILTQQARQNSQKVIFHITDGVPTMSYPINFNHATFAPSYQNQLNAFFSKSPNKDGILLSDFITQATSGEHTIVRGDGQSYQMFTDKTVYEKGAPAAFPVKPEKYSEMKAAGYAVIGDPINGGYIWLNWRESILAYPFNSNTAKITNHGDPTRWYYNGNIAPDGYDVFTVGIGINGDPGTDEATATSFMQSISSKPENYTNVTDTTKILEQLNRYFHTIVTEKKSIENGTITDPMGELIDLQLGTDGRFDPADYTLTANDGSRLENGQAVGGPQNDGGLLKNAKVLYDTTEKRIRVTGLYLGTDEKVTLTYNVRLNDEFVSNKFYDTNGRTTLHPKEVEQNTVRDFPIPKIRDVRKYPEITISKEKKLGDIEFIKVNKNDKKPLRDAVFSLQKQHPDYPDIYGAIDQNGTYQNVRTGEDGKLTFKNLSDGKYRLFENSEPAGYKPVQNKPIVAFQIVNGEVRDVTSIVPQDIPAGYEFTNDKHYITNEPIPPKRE
T2 sequence (A0A0H2UNM0 entry or part of it): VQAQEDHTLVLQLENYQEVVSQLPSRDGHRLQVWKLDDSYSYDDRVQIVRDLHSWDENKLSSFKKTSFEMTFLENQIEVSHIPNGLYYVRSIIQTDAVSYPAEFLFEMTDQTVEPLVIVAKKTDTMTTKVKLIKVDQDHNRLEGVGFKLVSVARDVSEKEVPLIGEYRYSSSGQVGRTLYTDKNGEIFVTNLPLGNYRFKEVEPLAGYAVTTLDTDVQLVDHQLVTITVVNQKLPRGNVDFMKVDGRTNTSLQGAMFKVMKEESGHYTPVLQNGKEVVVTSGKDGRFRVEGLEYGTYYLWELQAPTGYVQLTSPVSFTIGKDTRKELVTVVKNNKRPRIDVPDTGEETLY
T1 sequence (A0A0H2UNT6 entry or part of it): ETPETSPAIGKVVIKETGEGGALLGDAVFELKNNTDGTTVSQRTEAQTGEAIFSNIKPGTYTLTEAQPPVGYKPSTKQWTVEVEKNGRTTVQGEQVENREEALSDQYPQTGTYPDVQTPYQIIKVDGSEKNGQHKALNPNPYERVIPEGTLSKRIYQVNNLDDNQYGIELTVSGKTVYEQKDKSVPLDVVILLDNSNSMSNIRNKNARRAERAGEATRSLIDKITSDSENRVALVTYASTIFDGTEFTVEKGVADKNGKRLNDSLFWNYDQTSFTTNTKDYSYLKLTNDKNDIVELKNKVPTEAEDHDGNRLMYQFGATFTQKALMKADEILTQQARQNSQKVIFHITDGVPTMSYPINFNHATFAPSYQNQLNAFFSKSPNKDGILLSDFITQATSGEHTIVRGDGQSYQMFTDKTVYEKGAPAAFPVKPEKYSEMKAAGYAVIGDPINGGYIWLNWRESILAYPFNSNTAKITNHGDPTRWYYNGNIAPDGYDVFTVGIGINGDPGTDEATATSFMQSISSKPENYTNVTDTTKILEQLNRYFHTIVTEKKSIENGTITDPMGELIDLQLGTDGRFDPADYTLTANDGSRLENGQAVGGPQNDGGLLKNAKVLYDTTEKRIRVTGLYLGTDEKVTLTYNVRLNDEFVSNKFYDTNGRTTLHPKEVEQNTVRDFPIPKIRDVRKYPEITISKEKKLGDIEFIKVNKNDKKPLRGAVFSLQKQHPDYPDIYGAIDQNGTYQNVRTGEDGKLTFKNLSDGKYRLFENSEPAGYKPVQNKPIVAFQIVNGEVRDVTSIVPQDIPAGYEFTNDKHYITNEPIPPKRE
T3 sequence (A0A0H2UNM7 entry or part of it): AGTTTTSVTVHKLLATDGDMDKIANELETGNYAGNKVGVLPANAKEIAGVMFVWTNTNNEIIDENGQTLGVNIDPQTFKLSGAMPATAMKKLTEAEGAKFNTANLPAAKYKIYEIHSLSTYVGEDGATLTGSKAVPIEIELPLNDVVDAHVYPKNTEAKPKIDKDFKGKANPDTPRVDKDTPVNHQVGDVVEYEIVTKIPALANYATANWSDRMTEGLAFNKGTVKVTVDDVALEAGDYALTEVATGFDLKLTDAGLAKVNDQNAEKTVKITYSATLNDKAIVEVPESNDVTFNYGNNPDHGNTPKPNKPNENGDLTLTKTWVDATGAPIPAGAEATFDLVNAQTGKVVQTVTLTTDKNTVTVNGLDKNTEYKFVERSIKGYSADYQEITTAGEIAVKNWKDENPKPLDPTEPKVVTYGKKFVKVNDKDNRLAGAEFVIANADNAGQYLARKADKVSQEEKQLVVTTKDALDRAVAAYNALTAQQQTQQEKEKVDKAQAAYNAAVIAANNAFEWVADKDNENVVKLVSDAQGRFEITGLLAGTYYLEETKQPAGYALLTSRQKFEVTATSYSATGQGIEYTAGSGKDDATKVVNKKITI

For the molecule `CC(=O)N[C@H]1[C@H](O[C@H]2[C@@H](O)[C@@H](CO)O[C@@H](O[C@H]3[C@H](O)[C@@H](O)C(O)O[C@@H]3CO)[C@@H]2O)O[C@H](CO)[C@@H](O)[C@@H]1O[C@@H]1O[C@H](CO)[C@H](O)[C@H](O)[C@H]1O` (stereo partly shown) [1G, Lacto-N-tetraose], the Kd in experiment [1] stood at 0.869 ± 0.454 µM; in experiment [2] (setting [5]), 1.03 ± 0.05 µM.
For `CC(=O)N[C@H]1[C@@H](O[C@H]2[C@@H](O)[C@@H](CO)OC(O)[C@@H]2O[C@@H]2O[C@@H](C)[C@@H](O)[C@@H](O)[C@@H]2O)O[C@H](CO)[C@H](O)[C@@H]1O` (stereo partly shown) [7K, Blood group A tri] the same measures were 1.4 ± 0.29 µM and 0.916 ± 0.0664 µM.
On to `CC(=O)N[C@H]1[C@@H](O[C@H]2[C@@H](O)[C@@H](CO)O[C@@H](O[C@H]3[C@@H](O)[C@@H](CO)OC(O)[C@@H]3NC(C)=O)[C@@H]2O[C@@H]2O[C@@H](C)[C@@H](O)[C@@H](O)[C@@H]2O)O[C@H](CO)[C@H](O)[C@@H]1O` (stereo partly shown) [Blood group A type3/4], for which the figures for the Kd in experiment [1] and in experiment [2] (setting [5]) were 0.644 ± 0.157 µM and 0.871 ± 0.286 µM, respectively.
For the molecule `CC(=O)N[C@H]1C(O)O[C@H](CO)[C@H](O)[C@@H]1O[C@@H]1O[C@H](CO)[C@H](O)[C@H](O)[C@H]1O[C@@H]1O[C@@H](C)[C@@H](O)[C@@H](O)[C@@H]1O` (stereo partly shown) [Blood group H type 3/4], the Kd came to 0.358 ± 0.051 µM in experiment [1] and 0.0894 ± 0.016 µM in experiment [2] (read-out: RrgA TIGR4, free oligosaccharide, protein immobilised on CM5 chip, glycans 160 nM to 100 µM (value below tested range)).
For `CC(=O)N[C@H]1C(O)O[C@H](CO)[C@@H](O[C@@H]2O[C@H](CO)[C@H](O)[C@H](O)[C@H]2O)[C@@H]1O[C@@H]1O[C@@H](C)[C@@H](O)[C@@H](O)[C@@H]1O` (stereo partly shown) [Lewis X], the figures for the Kd in experiment [1] and in experiment [2] were 0.363 ± 0.107 µM and 0.434 ± 0.118 µM, respectively.
As to `OC[C@H]1O[C@@H](O[C@H]2[C@H](O)[C@@H](O)C(O)O[C@@H]2CO)[C@H](O)[C@@H](O)[C@@H]1O` (stereo partly shown) [cellobiose], in experiment [1], the Kd came to 0.583 ± 0.155 µM.
`CC(=O)N[C@H]1[C@H](O[C@H]2[C@H](O)[C@@H](NC(C)=O)C(O)O[C@@H]2CO)O[C@H](CO)[C@@H](O)[C@@H]1O` (stereo partly shown) [chitobiose]: the figures for the Kd in experiment [1] and in experiment [2] (setting [5]) were 0.426 ± 0.144 µM and 0.409 ± 0.16 µM, respectively.
Turning to `OC[C@H]1O[C@H](O[C@H]2[C@H](O)[C@@H](O)C(O)O[C@@H]2CO)[C@H](O)[C@@H](O)[C@@H]1O` (stereo partly shown) [maltobiose], the values for the Kd in experiment [1] and in experiment [2] (setting [5]) were 0.964 ± 0.226 µM and 1.16 ± 0.09 µM, respectively.
Turning to “Fucα1-2Galβ1-3(Fucα1-4)GlcNAcβ1-3Galβ1-4Glcβ-sp4 [compound 496]”, the “RrgC T4” value in experiment [3] came to 1192 ± 322.
Still for that read-out and setting: to “Galα1-3Galβ1-4GlcNAcβ-sp3 [compound 222]” belongs 3108 ± 641; to Galβ1-6Galβ-sp4 [compound 100], 3443.5 ± 523.
Consider Manα1-3Manβ-sp4 [compound 120], for which the “RrgB T4” value in experiment [4] worked out at 1332 ± 275.
